# Patent publication US11083725B2 (priority 2014, dated 2021)
# System: NHBE cells
# Experiment: Biolog metabolic array: substrate use by NHBE cells with or without CA09 infection
# Format: cell-based, human
# [1] = Control (uninfected) NHBE cells
# [2] = Virus (CA09-infected, MOI 1) NHBE cells
# [3] = Virus: CA09-infected NHBE cells, MOI 1, Biolog PMM2
smiles,measurement,setting,value
O=C(O)C[C@H](O)C(=O)O [L-Malic Acid],"590 nm absorbance normalized to zero hour (substrate use), 0 hr",[1],1.00
same,"590 nm absorbance normalized to zero hour (substrate use), 1 hr",[1],1.11
same,"590 nm absorbance normalized to zero hour (substrate use), 2 hr",[1],1.27
same,"590 nm absorbance normalized to zero hour (substrate use), 3 hr",[1],1.37
same,"590 nm absorbance normalized to zero hour (substrate use), 4 hr",[1],1.35
same,"590 nm absorbance normalized to zero hour (substrate use), 6 hr",[1],0.72
same,"590 nm absorbance normalized to zero hour (substrate use), 8 hr",[1],1.35
same,"590 nm absorbance normalized to zero hour (substrate use), 9 hr",[1],1.39
same,"590 nm absorbance normalized to zero hour (substrate use), 10 hr",[1],1.37
same,"590 nm absorbance normalized to zero hour (substrate use), 11 hr",[1],1.43
same,"Substrate use, 590 nm absorbance normalized to zero hour, 0 hr","Control (uninfected) NHBE cells, Biolog PMM2, 0 hr",1.00
same,"Substrate use, 590 nm absorbance normalized to zero hour, 1 hr","Control (uninfected) NHBE cells, Biolog PMM2, 1 hr",1.11
same,"Substrate use, 590 nm absorbance normalized to zero hour, 5 hr","Control (uninfected) NHBE cells, Biolog PMM2, 5 hr",1.41
same,"Substrate use, 590 nm absorbance normalized to zero hour, 7 hr","Control (uninfected) NHBE cells, Biolog PMM2, 7 hr",1.33
same,"590 nm absorbance normalized to zero hour (substrate use), 0 hr",[2],1.00
same,"590 nm absorbance normalized to zero hour (substrate use), 1 hr",[2],1.48
same,"590 nm absorbance normalized to zero hour (substrate use), 2 hr",[2],1.19
same,"590 nm absorbance normalized to zero hour (substrate use), 3 hr",[2],1.27
same,"590 nm absorbance normalized to zero hour (substrate use), 4 hr",[2],3.32
same,"590 nm absorbance normalized to zero hour (substrate use), 5 hr",[2],1.59
same,"590 nm absorbance normalized to zero hour (substrate use), 6 hr",[2],1.42
same,"590 nm absorbance normalized to zero hour (substrate use), 7 hr",[2],2.93
same,"590 nm absorbance normalized to zero hour (substrate use), 8 hr",[2],3.48
same,"590 nm absorbance normalized to zero hour (substrate use), 9 hr",[2],1.72
same,"590 nm absorbance normalized to zero hour (substrate use), 10 hr",[2],2.20
same,"590 nm absorbance normalized to zero hour (substrate use), 11 hr",[2],2.05
same,"590 nm absorbance normalized to zero hour (substrate use), 0 hr",[3],1.00
same,"590 nm absorbance normalized to zero hour (substrate use), 1 hr",[3],1.48
same,"590 nm absorbance normalized to zero hour (substrate use), 2 hr",[3],1.19
same,"590 nm absorbance normalized to zero hour (substrate use), 3 hr",[3],1.27
same,"590 nm absorbance normalized to zero hour (substrate use), 4 hr",[3],3.32
same,"590 nm absorbance normalized to zero hour (substrate use), 5 hr",[3],1.59
same,"590 nm absorbance normalized to zero hour (substrate use), 6 hr",[3],1.42
same,"590 nm absorbance normalized to zero hour (substrate use), 7 hr",[3],2.93
same,"590 nm absorbance normalized to zero hour (substrate use), 8 hr",[3],3.48
same,"590 nm absorbance normalized to zero hour (substrate use), 9 hr",[3],1.72
same,"590 nm absorbance normalized to zero hour (substrate use), 10 hr",[3],2.20
same,"590 nm absorbance normalized to zero hour (substrate use), 11 hr",[3],2.05
